For 16 compounds, T/C results are on record in PubChem BioAssay AID276 (DTP/NCI, 2004).

The assay deals with B6C3F1 mice, Lewis lung carcinoma iv, survival T/C. In words: NCI In Vivo Anticancer Drug Screen. Data for tumor model Lewis Lung Carcinoma (intravenous) in B6C3F1 mice. Particulars: endpoint: median survival time, higher = longer survival. In short, it runs like this:
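Mice carrying transplanted tumors received test compound; survival in the treated group was divided by that of the vehicle-treated control group to give the T/C value.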

The mark [1] stands for this setting: dose: 6.0 mg/kg/injection, schedule: Q01DX009 (ip), vehicle: saline.
Where [2] appears, read: dose: 6.25 mg/kg/injection, schedule: Q01DX009 (ip), vehicle: saline.
[3] abbreviates: dose: 12.0 mg/kg/injection, schedule: Q01DX009 (ip), vehicle: saline.
Where [4] appears, read: dose: 12.5 mg/kg/injection, schedule: Q01DX009 (ip), vehicle: saline.
Setting [5] is: dose: 25.0 mg/kg/injection, schedule: Q01DX009 (ip), vehicle: saline.
Where [6] appears, read: dose: 12.5 mg/kg/injection, schedule: Q01DX009 (ip), vehicle: Klucel (hydroxypropylcellulose) (HPC).
The mark [7] stands for this setting: dose: 25.0 mg/kg/injection, schedule: Q01DX009 (ip), vehicle: Klucel (hydroxypropylcellulose) (HPC).
Where [8] appears, read: dose: 50.0 mg/kg/injection, schedule: Q01DX009 (ip), vehicle: Klucel (hydroxypropylcellulose) (HPC).
The mark [9] stands for this setting: dose: 1.56 mg/kg/injection, schedule: Q01DX009 (ip), vehicle: saline.
[10] abbreviates: dose: 3.12 mg/kg/injection, schedule: Q01DX009 (ip), vehicle: saline.
Setting [11] is: dose: 50.0 mg/kg/injection, schedule: Q01DX009 (ip), vehicle: saline with Tween-80.
Where [12] appears, read: dose: 100.0 mg/kg/injection, schedule: Q01DX009 (ip), vehicle: saline with Tween-80.
Where [13] appears, read: dose: 200.0 mg/kg/injection, schedule: Q01DX009 (ip), vehicle: saline with Tween-80.
Where [14] appears, read: dose: 25.0 mg/kg/injection, schedule: Q01DX009 (ip), vehicle: saline with Tween-80.

Where “and” joins values, the source holds several entries; their conditions need not be identical. Identical values can stand only once. Inconclusive results and toxic doses are left out.

As to `O=P1(N(CCCl)CCCl)NCCCO1` (configuration not stated), the T/C is 105 % of control under setting [1]; 108 % of control under setting [2]; 116 % of control under setting [3]; 123 % of control under setting [4]; 110 % of control (dose: 25.0 mg/kg/injection, schedule: Q01DX001 (ip), vehicle: saline); 191 % of control under setting [5]. Besides, the T/C by setting is: (dose: 37.0 mg/kg/injection, schedule: Q01DX001 (ip), vehicle: saline) 120 % of control; (dose: 48.4 mg/kg/injection, schedule: Q01DX001 (ip), vehicle: saline) 103 % of control; (dose: 50.0 mg/kg/injection, schedule: Q01DX001 (ip), vehicle: saline) 116 % of control and 122 % of control; (dose: 50.0 mg/kg/injection, schedule: Q01DX009 (ip), vehicle: saline) 337 % of control; (dose: 64.4 mg/kg/injection, schedule: Q01DX001 (ip), vehicle: saline) 115 % of control; (dose: 75.0 mg/kg/injection, schedule: Q01DX001 (ip), vehicle: saline) 171 % of control. The T/C (dose: 100.0 mg/kg/injection, schedule: Q01DX001 (ip), vehicle: saline) is 151 % of control and 152 % of control and 188 % of control; the T/C (dose: 150.0 mg/kg/injection, schedule: Q01DX001 (ip), vehicle: saline) is 349 % of control; the T/C (dose: 300.0 mg/kg/injection, schedule: Q01DX001 (ip), vehicle: saline) is 230 % of control; the T/C (dose: 400.0 mg/kg/injection, schedule: Q01DX001 (ip), vehicle: saline) was 312 % of control.
On to `Cc1ccc(NCCN(C)C)c2c(=O)c3cc(O)ccc3sc12`, for which the T/C was 101 % of control (dose: 12.0 mg/kg/injection, schedule: Q01DX009 (ip), vehicle: Klucel (hydroxypropylcellulose) (HPC)); 103 % of control under setting [6]; 105 % of control and 121 % of control under setting [7]; 121 % of control and 123 % of control under setting [8]; 120 % of control and 232 % of control (dose: 100.0 mg/kg/injection, schedule: Q01DX009 (ip), vehicle: Klucel (hydroxypropylcellulose) (HPC)); 155 % of control (dose: 200.0 mg/kg/injection, schedule: Q01DX009 (ip), vehicle: Klucel (hydroxypropylcellulose) (HPC)).
As for `COC1/C=C/C=C(/C)Cc2cc(O)c(Cl)c(c2)N(C)C(=O)CC(OC(=O)C(C)C)C2(C)OC2C(C)C2CC1(O)NC(=O)O2` (configuration not stated), the T/C reads like this: (dose: 0.06 mg/kg/injection, schedule: Q01DX009 (ip), vehicle: saline + alcohol) 101 % of control; (dose: 0.12 mg/kg/injection, schedule: Q01DX009 (ip), vehicle: saline + alcohol) 96 % of control; (dose: 0.25 mg/kg/injection, schedule: Q01DX009 (ip), vehicle: saline + alcohol) 100 % of control; (dose: 0.5 mg/kg/injection, schedule: Q01DX009 (ip), vehicle: saline + alcohol) 100 % of control.
On to `Cc1c2cc[n+](CCN3CCCCC3)cc2c(C)c2c1[nH]c1ccc(O)cc12`, for which the T/C reads like this: under setting [9], 94 % of control; under setting [10], 116 % of control; under setting [2], 106 % of control; under setting [4], 103 % of control; under setting [5], 104 % of control.
Regarding `C(=N/NC1=NCCN1)/c1c2ccccc2c(/C=N\NC2=NCCN2)c2ccccc12`, the T/C is 110 % of control under setting [10], 100 % of control under setting [4] and 100 % of control under setting [5].
As to `O=NN(CCF)C(=O)N[C@H]1CCCC[C@H]1O`, the T/C was 105 % of control (dose: 2.5 mg/kg/injection, schedule: Q01DX009 (ip), vehicle: saline); 121 % of control (dose: 5.0 mg/kg/injection, schedule: Q01DX009 (ip), vehicle: saline); 173 % of control (dose: 10.0 mg/kg/injection, schedule: Q01DX009 (ip), vehicle: saline); 312 % of control (dose: 20.0 mg/kg/injection, schedule: Q01DX009 (ip), vehicle: saline).
`OCCCN1CCCCC1CO` (configuration not stated): the T/C is 96 % of control (dose: 400.0 mg/kg/injection, schedule: Q01DX009 (ip), vehicle: saline) and 97 % of control (dose: 800.0 mg/kg/injection, schedule: Q01DX009 (ip), vehicle: saline).
For the compound `Nc1ncnc2c1nnn2C1OC(CO)C(O)C1O` (configuration not stated), the T/C was 110 % of control under setting [6], 103 % of control under setting [7] and 105 % of control under setting [8].
On to `CCCCCC#CC1OC12CCCCC2` (configuration not stated), for which the T/C is, setting by setting: under setting [11], 102 % of control; under setting [12], 100 % of control; under setting [13], 88 % of control; (dose: 400.0 mg/kg/injection, schedule: Q01DX009 (ip), vehicle: saline with Tween-80) 91 % of control.
For `COc1ccc(C(=O)C(CN(C)C)CN(C)C)cc1`, the T/C reads like this: under setting [9], 96 % of control; under setting [10], 102 % of control; under setting [2], 102 % of control; under setting [4], 105 % of control; under setting [5], 105 % of control.
As to `C=C1C(=O)OC2CC(C)C3C4OC4C(O)C3(C)C(O)C12` (configuration not stated), the T/C (dose: 5.62 mg/kg/injection, schedule: Q01DX009 (ip), vehicle: saline) is 100 % of control; the T/C (dose: 11.25 mg/kg/injection, schedule: Q01DX009 (ip), vehicle: saline) was 102 % of control; the T/C (dose: 22.5 mg/kg/injection, schedule: Q01DX009 (ip), vehicle: saline) is 100 % of control; the T/C (dose: 45.0 mg/kg/injection, schedule: Q01DX009 (ip), vehicle: saline) is 108 % of control; the T/C (dose: 90.0 mg/kg/injection, schedule: Q01DX009 (ip), vehicle: saline) is 105 % of control.
For the compound `COc1cccc2c1C(=O)c1c(O)c3c(c(O)c1C2=O)CC(O)(/C(C)=N/NC(=O)CCCCC(=O)N/N=C(\C)C1(O)Cc2c(O)c4c(c(O)c2C(OC2CC(N)C(O)C(C)O2)C1)C(=O)c1c(OC)cccc1C4=O)CC3OC1CC(N)C(O)C(C)O1` (configuration not stated), the T/C is, setting by setting: (dose: 1.5 mg/kg/injection, schedule: Q01DX009 (ip), vehicle: water) 120 % of control; (dose: 3.0 mg/kg/injection, schedule: Q01DX009 (ip), vehicle: water) 109 % of control; (dose: 6.25 mg/kg/injection, schedule: Q01DX009 (ip), vehicle: water) 117 % of control.
Consider `COc1c(C)c2c(c(O)c1C/C=C(\C)CCC(=O)O)C(=O)OC2`, for which the T/C is, setting by setting: under setting [11], 91 % of control; under setting [12], 91 % of control; under setting [13], 98 % of control.
As for `O=C(C1CO1)C(Cl)(Cl)Cl` (configuration not stated), the T/C by setting is: (dose: 1.5 mg/kg/injection, schedule: Q01DX009 (ip), vehicle: saline) 95 % of control; (dose: 3.0 mg/kg/injection, schedule: Q01DX009 (ip), vehicle: saline) 92 % of control; under setting [1], 97 % of control; under setting [3], 95 % of control; under setting [14], 108 % of control.
In the case of `c1cc(OCC2CO2)ccc1OCC1CO1` (configuration not stated), the T/C is 96 % of control (dose: 12.5 mg/kg/injection, schedule: Q01DX009 (ip), vehicle: saline with Tween-80); 94 % of control under setting [14]; 100 % of control under setting [11]; 96 % of control under setting [12].
For `C1CN1c1nc(N2CC2)nc(N2CC2)n1`, the T/C (dose: 0.06 mg/kg/injection, schedule: Q01DX009 (ip), vehicle: suspension in saline) is 96 % of control; the T/C (dose: 0.12 mg/kg/injection, schedule: Q01DX009 (ip), vehicle: suspension in saline) is 92 % of control; the T/C (dose: 0.25 mg/kg/injection, schedule: Q01DX009 (ip), vehicle: suspension in saline) was 101 % of control; the T/C (dose: 0.5 mg/kg/injection, schedule: Q01DX009 (ip), vehicle: suspension in saline) is 106 % of control; the T/C (dose: 1.0 mg/kg/injection, schedule: Q01DX009 (ip), vehicle: suspension in saline) was 121 % of control.
